The source of these data is ChEMBL document CHEMBL3639378, “Morpholinone compounds as factor IXA inhibitors” (2015).

The assay deals with Coagulation factor IX (Homo sapiens, UniProt P00740). In words: Test substances dissolved in buffer A (50 mM α,α,α-tris (hydroxymethyl)methylamine (Tris), 100 mM NaCl, 5 mM CaCl2, 15% (v/v) ethylene glycol, pH 8.0) were mixed with factor IXa (2.0 μg/ml final concentration). The enzyme reaction was started by addition of SPECTROFLUOR FIXa (100 μM final concentration).
Sequence of Coagulation factor IX (P00740 47-191 limits assumed): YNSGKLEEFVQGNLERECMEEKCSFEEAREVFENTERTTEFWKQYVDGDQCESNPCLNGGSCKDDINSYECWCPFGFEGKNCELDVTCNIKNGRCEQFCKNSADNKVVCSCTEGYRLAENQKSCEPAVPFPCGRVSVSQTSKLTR
Sequence of Coagulation factor IX (P00740 227-461 limits assumed): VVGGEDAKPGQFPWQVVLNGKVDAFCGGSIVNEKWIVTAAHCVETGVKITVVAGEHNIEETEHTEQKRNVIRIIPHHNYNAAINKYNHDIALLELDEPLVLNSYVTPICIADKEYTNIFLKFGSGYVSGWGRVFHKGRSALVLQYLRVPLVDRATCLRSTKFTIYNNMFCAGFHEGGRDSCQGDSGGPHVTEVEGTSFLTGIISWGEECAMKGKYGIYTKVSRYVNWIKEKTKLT

With `Cc1ccc(CN2CCO[C@H]([C@@H](O)C(=O)Nc3ccc(C(=N)N)cc3)C2=O)cc1`, the IC50 stood at 130 nM.

In general, IC50 refers to the concentration at which inhibition is half-maximal.
